# From patent US20150315179A1, “COMPOUNDS AND METHODS OF TREATING NEUROLOGICAL DISORDERS” (Torrey Pines Institute For Molecular Studies, priority 2014, published 2015)
# Assays:
# [1] = test system: sAPPα levels, human primary neurons transiently transfected with APP751 with Swedish mutation; assay: sAPPα ELISA, human primary neurons transfected with APP751; assay type: cell-based
# Protocol: (1). […] Therefore, we first used fibroblasts derived from AD patients (AG06263C, Coriell Cell repository, supported by NINDS/NIH) and exposed to THPI-244 for 24 h and measured sAPPα release by ELISA as done above for NT2 cells. […] We also confirmed dose-dependent effect of THPI-244 on sAPPα levels in human primary neurons transiently transfected with APP751 with Swedish mutation which is trafficked differently from WT APP and releases more sAPPα. Human neurons were grown on specially coated glass coverslips (cat # GG-18-PDL, NeuVitro, Germany). We could reproducibly achieve nearly 30% transfection efficiency using a nanoparticle based transfection reagent called Neuromag (cat # NM150299, OZ Biosciences, France).
# TrkA dimer = biological target: T1, TrkA dimer (Homo sapiens, UniProt P04629); assay: TrkA dimerization immunoblot, NT2 cells; assay type: cell-based; conditions: 48 h
# T1 construct: endogenous in cells; host or cells: NT2 cells (stably expressing APP751; no TrkA transfection described)
# T1 sequence (P04629 33-796): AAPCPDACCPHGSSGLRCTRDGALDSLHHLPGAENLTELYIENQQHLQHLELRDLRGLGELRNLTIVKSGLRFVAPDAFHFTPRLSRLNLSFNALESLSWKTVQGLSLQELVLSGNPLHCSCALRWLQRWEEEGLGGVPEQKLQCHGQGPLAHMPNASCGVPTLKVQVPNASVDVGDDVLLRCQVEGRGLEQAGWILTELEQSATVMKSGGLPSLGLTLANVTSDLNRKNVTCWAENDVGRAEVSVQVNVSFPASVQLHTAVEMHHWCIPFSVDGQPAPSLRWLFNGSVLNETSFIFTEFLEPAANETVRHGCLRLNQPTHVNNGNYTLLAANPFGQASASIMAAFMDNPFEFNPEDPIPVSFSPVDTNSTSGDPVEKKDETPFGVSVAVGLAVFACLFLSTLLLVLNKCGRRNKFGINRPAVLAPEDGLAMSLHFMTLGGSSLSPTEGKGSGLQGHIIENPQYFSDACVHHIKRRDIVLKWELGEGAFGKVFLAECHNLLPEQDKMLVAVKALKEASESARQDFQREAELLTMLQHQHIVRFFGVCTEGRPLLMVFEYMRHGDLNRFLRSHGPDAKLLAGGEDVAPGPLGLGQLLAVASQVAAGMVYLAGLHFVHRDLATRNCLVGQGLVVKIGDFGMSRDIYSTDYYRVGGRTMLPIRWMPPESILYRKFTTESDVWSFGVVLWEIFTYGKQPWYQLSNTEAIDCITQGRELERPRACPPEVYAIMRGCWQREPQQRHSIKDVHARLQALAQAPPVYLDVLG
# Protocol: FIGS. 9.4A and B illustrates that THPI-244 increases TrkA dimerization in NT2 cells. FIG. 9.4A illustrates that NT2 cells were treated with THPI-244 at 100 and 200 nM for 48 h and the cell lysates were subjected to immunoblots. TrkA monomer was detected at 140 kDa and dimer at 280 kDA. […] Data are mean±SEM, n=4, **, p<0.01, ***, p<0.001 by ANOVA.
# [2] = test system: sAPPα levels in conditioned medium of NT2 cells; assay: sAPPα immunoblot, NT2 cells with or without TrkA inhibitor; assay type: cell-based, human; conditions: 24 h
# Protocol: (3). THPI-244 increases TrkA receptor levels independent of protein kinase C (PKC). Next to clarify whether increased sAPPα levels depends on increased TrkA activation, NT2 cells were treated with THPI-244 with or without TrkA inhibitor (cat # GW 441756, Tocris Bioscience) at 50 nM final concentration. After 24 h, sAPPα levels were quantified from the conditioned medium by immunoblots. […] We next wanted to address whether increased TrkA protein levels by THPI-244 depends on PKC since PKC activators are well-known to induce sAPPα secretion (Etcheberringaray, R., et al., 2004, PNAS, 101, 11141-11146). NT2 cells were similarly treated with THPI-244 at 100 nM with or without PKC inhibitor (GF 109203, cat #0741, Tocris Bioscience) at 1.0 nM and TrkA protein levels were quantified by immunoblots as shown in FIG. 1.10 (right). […] Thus increased sAPPα level by THPI-244 is through upregulation of TrkA receptor independent of PKC.
# [3] = test system: sAPPα release from 7WD10 cells; assay: AlphaLISA sAPPα release assay (pilot screen); assay type: cell-based; conditions: 5 μM, 7WD10 cells, 24 h
# Protocol: Pilot screen of AlphaLISA sAPPα release assay. 8 μL of assay media (DMEM supplemented with 10% FBS and 1× Penicillin/Streptomycin) containing 20,000 cells were added to all wells of the assay plate, except column 1 where only media was added. Plates were incubated for 4 h at 37° C., 5% CO2, 95% RH after which 80 nL of test compounds in DMSO or DMSO alone were added to respective wells using a pin tool device (VP Scientific, San Diego). After 24 h of incubation at 37° C., 5% CO2, 95% RH, sAPPα AlphaLISA beads were added in 10 μL of buffer, equilibrated for 1 h, and AlphaLISA signal was measured using a Biotek H4 Synergy microplate reader (Biotek Inc). Three parameters were calculated on a per-plate basis: (a) the signal-to-background ratio (S/B); (b) the coefficient for variation [CV; CV=(standard deviation/mean)×100)] for all compound test wells; and (c) the Z′-factor [31]. Nominally active compounds from the pilot screen were determined using mean plus 3 times the standard deviation (Mean+3SD) was used as the cut-off.
# [4] = test system: sAPPα in supernatants of 7WD10 cells; assay: Western blot sAPPα release assay, 7WD10 cells; assay type: cell-based
# Protocol: (2). To ascertain that hits identified as a result of AlphaLISA assay are not due to artifacts of the detection system, the sAPPα levels were measured by Western blots as a secondary assay downstream of primary HTS to confirm hits or discard artifacts of the AlphaLISA assay. The assay was performed using a range of concentrations of hit compounds (10-5,000 nM). A hit compound named thiazole piperazine #244 (THPI-244) and THPI-326 induced dose-dependent increase of sAPPα in supernatants of 7WD10 cells (FIG. 1.3). […] Since compound THPI-244 increased sAPPα levels more than THPI-326, we focused on THPI-244 for further validation.
# Western blot sAPPα release assay. 7WD10 cells were grown in 6-well plates and treated with test compounds and SAHA (vorinostat) at several concentrations in duplicate wells. After 24 h of drug exposure, the conditioned media (CM) was collected, centrifuged to remove cell debris and subjected to SDS-PAGE electrophoresis. sAPPα (6E10, mouse IgG from IBL America ltd) was detected using indicated antibody. To detect APP-FL holoprotein and C-terminal fragments (CTFs, CT15 antibody), the cells were lysed using lysis buffer (1% NP40) with complete protease inhibitor mix (Sigma) supplemented with sodium vanadate and microcystine. Samples were subjected to SDS-PAGE, transferred and immunoblotted with indicated antibodies and detected by enhanced chemiluminescence method. Quantification of Western blot signals was done using ImageJ software.
# human primary neurons = assay: Neurite outgrowth, Sholl analysis of dendritic intersections; assay type: cell-based; conditions: 2DIV until 6DIV
# From the text: (4). The most important property of THPI-244 is its ability to increase neurite outgrowth and dendritic intersections in human primary neurons. Since both TrkA and sAPPα promote neuron growth and provide trophic support, we tested whether treatment of human primary neurons with THPI-244 induces neurite outgrowth. […] Considering an enormous potential for such an excellent results in human neurons, we did systematic analysis by also treating neurons in the presence of TrkA inhibitor to verify if the increased neurite outgrowth is mediated by TrkA receptor. Sholl analysis using ImageJ software of individual neurons (at least 30 per group) immunostained for MAP2 antibody confirmed our initial findings. […] This confirmed that THPI-244 increases TrkA protein levels which has vital role in regulating neuritic outgrowth.
compound,measurement,setting,value
O=C(Cc1ccccc1)N[C@H](CNc1nc(CN2CCN(C(=O)Cc3ccccc3)CC2)cs1)c1ccccc1 [THPI-244],increase of sAPPα levels,[1]; 50 nM,171%
same,increase of sAPPα levels,[1]; 2000 nM,301%
same,increase of TrkA dimer,TrkA dimer; 100 nM,82%
same,increase of TrkA dimer,TrkA dimer; 200 nM,134%
same,sAPPα levels,[2]; THPI-244 100 nM with TrkA inhibitor GW 441756 50 nM,132%
same,sAPPα levels,[2]; THPI-244 100 nM,245%
same,increase of Alpha signal (sAPPα release),[3],~2 fold
same,levels of APP-FL,"[4]; CHO cells, Western blot",no change
same,increase of sAPPα over untreated control cells,"[4]; as low as 10 nM, 7WD10 supernatants",2 fold
same,number of dendritic intersections,human primary neurons; Sholl analysis,highly significant increase
same,number of dendritic intersections,human primary neurons; THPI-244 with TrkA inhibitor,almost completely prevented the increased intersections
